Measurements from ChEMBL document CHEMBL1145752, “Dissociation of antibacterial and hemolytic activities of an amphipathic peptide antibiotic” (2003).
Values after ≈ are worked out from the molar mass of the structure shown. Blank lines part the entries; values can stand above or below the molecule they belong to. Non-standard residues stand in square brackets, D forms with d. Residues, ends and D or L forms follow the SMILES beside them. Orn = NCCC[C@H](N)C(=O)O

Experiments:
Type in all cases: functional
Bacillus subtilis [1] = test: Inhibitory activity was determined against bacillus subtilis (ATCC 82)
[2] = Tested for minimum concentration for hemolysis of fresh human erythrocytes
Bacillus subtilis [3] = test: Ratio of minimum hemolysis concentration to that of minimum inhibitory concentration

Structure (SMILES): CC(C)C[C@@H]1NC(=O)[C@H](CCCN)NC(=O)[C@H](C(C)C)NC(=O)[C@H](Cc2ccc(O)cc2)NC(=O)[C@H](CCC(N)=O)NC(=O)[C@H](CC(N)=O)NC(=O)[C@@H](Cc2ccccc2)NC(=O)[C@H](Cc2ccccc2)NC(=O)[C@@H]2CCCN2C(=O)[C@@H](C)NC1=O
MIC (Bacillus subtilis [1]): 15 µg/mL (≈ 12.6 µM) | MHC [2]: 20 µg/mL | Ratio (Bacillus subtilis [3]): 1.3

Structure (SMILES): CC(C)C[C@@H]1NC(=O)[C@H](CCCN)NC(=O)[C@H](C(C)C)NC(=O)[C@H](Cc2ccc(O)cc2)NC(=O)[C@H](CCC(N)=O)NC(=O)[C@H](CC(N)=O)NC(=O)[C@@H](C)NC(=O)[C@H](Cc2ccccc2)NC(=O)[C@@H]2CCCN2C(=O)[C@@H](Cc2ccccc2)NC1=O
MIC (Bacillus subtilis [1]): 10 µg/mL (≈ 8.37 µM) | MHC [2]: 47 µg/mL | Ratio (Bacillus subtilis [3]): 4.7

Structure (SMILES): CC(C)C[C@@H]1NC(=O)[C@H](C)NC(=O)[C@H](C(C)C)NC(=O)[C@H](Cc2ccc(O)cc2)NC(=O)[C@H](CCC(N)=O)NC(=O)[C@H](CC(N)=O)NC(=O)[C@@H](Cc2ccccc2)NC(=O)[C@H](Cc2ccccc2)NC(=O)[C@@H]2CCCN2C(=O)[C@@H](Cc2ccccc2)NC1=O
MIC (Bacillus subtilis [1]): 13 µg/mL (≈ 10.6 µM) | MHC [2]: 13 µg/mL | Ratio (Bacillus subtilis [3]): 1

Structure (SMILES): CC(C)C[C@@H]1NC(=O)[C@H](CCCN)NC(=O)[C@H](C(C)C)NC(=O)[C@H](Cc2ccc(O)cc2)NC(=O)[C@H](CCC(N)=O)NC(=O)[C@H](C)NC(=O)[C@@H](Cc2ccccc2)NC(=O)[C@H](Cc2ccccc2)NC(=O)[C@@H]2CCCN2C(=O)[C@@H](Cc2ccccc2)NC1=O
MIC (Bacillus subtilis [1]): 15 µg/mL (≈ 12.2 µM) | MHC [2]: 39 µg/mL | Ratio (Bacillus subtilis [3]): 2.6

Structure (SMILES): CC(C)C[C@@H]1NC(=O)[C@H](CCCN)NC(=O)[C@H](C(C)C)NC(=O)[C@H](Cc2ccc(O)cc2)NC(=O)[C@H](CCC(N)=O)NC(=O)[C@H](CC(N)=O)NC(=O)[C@@H](Cc2ccccc2)NC(=O)[C@H](Cc2ccccc2)NC(=O)[C@H](C)NC(=O)[C@@H](Cc2ccccc2)NC1=O
MIC (Bacillus subtilis [1]): 18 µg/mL (≈ 14.5 µM) | MHC [2]: 53 µg/mL | Ratio (Bacillus subtilis [3]): 2.9

Structure (SMILES): CC(C)[C@@H]1NC(=O)[C@H](Cc2ccc(O)cc2)NC(=O)[C@H](CCC(N)=O)NC(=O)[C@H](CC(N)=O)NC(=O)[C@@H](Cc2ccccc2)NC(=O)[C@H](Cc2ccccc2)NC(=O)[C@@H]2CCCN2C(=O)[C@@H](Cc2ccccc2)NC(=O)[C@H](C)NC(=O)[C@H](CCCN)NC1=O
MIC (Bacillus subtilis [1]): 25 µg/mL (≈ 20.4 µM) | MHC [2]: 50 µg/mL | Ratio (Bacillus subtilis [3]): 2

Structure (SMILES): CC(C)C[C@@H]1NC(=O)[C@H](CCCN)NC(=O)[C@H](C(C)C)NC(=O)[C@H](Cc2ccc(O)cc2)NC(=O)[C@H](CCC(=O)O)NC(=O)[C@H](CC(N)=O)NC(=O)[C@@H](Cc2ccccc2)NC(=O)[C@H](Cc2ccccc2)NC(=O)[C@@H]2CCCN2C(=O)[C@@H](Cc2ccccc2)NC1=O
MIC (Bacillus subtilis [1]): 7.5 µg/mL (≈ 5.9 µM) | MHC [2]: 30 µg/mL | Ratio (Bacillus subtilis [3]): 4

Structure (SMILES): CC(C)C[C@@H]1NC(=O)[C@H](CCCN)NC(=O)[C@H](C(C)C)NC(=O)[C@H](Cc2ccc(O)cc2)NC(=O)[C@H](CCC(N)=O)NC(=O)[C@H](CC(N)=O)NC(=O)[C@@H](Cc2ccccc2)NC(=O)[C@H](C)NC(=O)[C@@H]2CCCN2C(=O)[C@@H](Cc2ccccc2)NC1=O
MIC (Bacillus subtilis [1]): 19 µg/mL (≈ 15.9 µM) | MHC [2]: 47 µg/mL | Ratio (Bacillus subtilis [3]): 2.5

Structure (SMILES): CC(C)C[C@@H]1NC(=O)[C@H](CCCN)NC(=O)[C@H](C(C)C)NC(=O)[C@H](C)NC(=O)[C@H](CCC(N)=O)NC(=O)[C@H](CC(N)=O)NC(=O)[C@@H](Cc2ccccc2)NC(=O)[C@H](Cc2ccccc2)NC(=O)[C@@H]2CCCN2C(=O)[C@@H](Cc2ccccc2)NC1=O
MIC (Bacillus subtilis [1]): 14 µg/mL (≈ 11.9 µM) | MHC [2]: 14 µg/mL | Ratio (Bacillus subtilis [3]): 1

Structure (SMILES): CC(C)C[C@@H]1NC(=O)[C@H](CCCN)NC(=O)[C@H](C)NC(=O)[C@H](Cc2ccc(O)cc2)NC(=O)[C@H](CCC(N)=O)NC(=O)[C@H](CC(N)=O)NC(=O)[C@@H](Cc2ccccc2)NC(=O)[C@H](Cc2ccccc2)NC(=O)[C@@H]2CCCN2C(=O)[C@@H](Cc2ccccc2)NC1=O
MIC (Bacillus subtilis [1]): 15 µg/mL (≈ 12.1 µM) | MHC [2]: 16 µg/mL | Ratio (Bacillus subtilis [3]): 1.1

Structure (SMILES): CC(C)C[C@@H]1NC(=O)[C@H](CCCN)NC(=O)[C@H](C(C)C)NC(=O)[C@H](Cc2ccc(O)cc2)NC(=O)[C@H](CCC(N)=O)NC(=O)[C@H](CC(N)=O)NC(=O)[C@@H](Cc2ccccc2)NC(=O)[C@H](Cc2ccccc2)NC(=O)[C@@H]2CCCN2C(=O)[C@@H](Cc2ccccc2)NC1=O [TYROCIDINE A] (cyclo(F[dF]NQYV[Orn]L[dF]P))
MIC (Bacillus subtilis [1]): 8.3 µg/mL (≈ 6.53 µM) | MHC [2]: 8.2 µg/mL | Ratio (Bacillus subtilis [3]): 1

Molecules with a lower MIC (Bacillus subtilis [1]), results first:

MIC (Bacillus subtilis [1]): 5.3 µg/mL (≈ 4.21 µM)
Structure (SMILES): CC(C)C[C@@H]1NC(=O)[C@H](CCCN)NC(=O)[C@H](C(C)C)NC(=O)[C@H](Cc2ccc(O)cc2)NC(=O)[C@H](CC(=O)O)NC(=O)[C@H](CC(N)=O)NC(=O)[C@@H](Cc2ccccc2)NC(=O)[C@H](Cc2ccccc2)NC(=O)[C@@H]2CCCN2C(=O)[C@@H](Cc2ccccc2)NC1=O
MHC [2]: 32 µg/mL | Ratio (Bacillus subtilis [3]): 6

MIC (Bacillus subtilis [1]): 5 µg/mL (≈ 3.83 µM)
Structure (SMILES): CC(C)C[C@@H]1NC(=O)[C@H](CCCN)NC(=O)[C@H](C(C)C)NC(=O)[C@H](Cc2ccc(O)cc2)NC(=O)[C@H](Cc2ccc(O)cc2)NC(=O)[C@H](CC(N)=O)NC(=O)[C@@H](Cc2ccccc2)NC(=O)[C@H](Cc2ccccc2)NC(=O)[C@@H]2CCCN2C(=O)[C@@H](Cc2ccccc2)NC1=O
MHC [2]: 120 µg/mL | Ratio (Bacillus subtilis [3]): 24

MIC (Bacillus subtilis [1]): 3.8 µg/mL (≈ 2.86 µM)
Structure (SMILES): CC(C)C[C@@H]1NC(=O)[C@H](CCCN)NC(=O)[C@H](C(C)C)NC(=O)[C@H](Cc2ccc(O)cc2)NC(=O)[C@H](Cc2c[nH]c3ccccc23)NC(=O)[C@H](CC(N)=O)NC(=O)[C@@H](Cc2ccccc2)NC(=O)[C@H](Cc2ccccc2)NC(=O)[C@@H]2CCCN2C(=O)[C@@H](Cc2ccccc2)NC1=O
MHC [2]: 125 µg/mL | Ratio (Bacillus subtilis [3]): 33

MIC (Bacillus subtilis [1]): 2.9 µg/mL (≈ 2.34 µM)
Structure (SMILES): CC(C)C[C@@H]1NC(=O)[C@H](CCCN)NC(=O)[C@H](C(C)C)NC(=O)[C@H](Cc2ccc(O)cc2)NC(=O)[C@H](C(C)C)NC(=O)[C@H](CC(N)=O)NC(=O)[C@@H](Cc2ccccc2)NC(=O)[C@H](Cc2ccccc2)NC(=O)[C@@H]2CCCN2C(=O)[C@@H](Cc2ccccc2)NC1=O
MHC [2]: 35 µg/mL | Ratio (Bacillus subtilis [3]): 12

MIC (Bacillus subtilis [1]): 1.8 µg/mL (≈ 1.43 µM)
Structure (SMILES): CC[C@H](C)[C@@H]1NC(=O)[C@H](CC(N)=O)NC(=O)[C@@H](Cc2ccccc2)NC(=O)[C@H](Cc2ccccc2)NC(=O)[C@@H]2CCCN2C(=O)[C@@H](Cc2ccccc2)NC(=O)[C@H](CC(C)C)NC(=O)[C@H](CCCN)NC(=O)[C@H](C(C)C)NC(=O)[C@H](Cc2ccc(O)cc2)NC1=O
MHC [2]: 45 µg/mL | Ratio (Bacillus subtilis [3]): 25

MIC (Bacillus subtilis [1]): 1.5 µg/mL (≈ 1.24 µM)
Structure (SMILES): CC(C)C[C@@H]1NC(=O)[C@H](CCCN)NC(=O)[C@H](C(C)C)NC(=O)[C@H](Cc2ccc(O)cc2)NC(=O)[C@H](C)NC(=O)[C@H](CC(N)=O)NC(=O)[C@@H](Cc2ccccc2)NC(=O)[C@H](Cc2ccccc2)NC(=O)[C@@H]2CCCN2C(=O)[C@@H](Cc2ccccc2)NC1=O
MHC [2]: 28 µg/mL | Ratio (Bacillus subtilis [3]): 19

MIC (Bacillus subtilis [1]): 1.1 µg/mL (≈ 0.866 µM)
Structure (SMILES): CC(C)C[C@@H]1NC(=O)[C@H](CCCN)NC(=O)[C@H](C(C)C)NC(=O)[C@H](Cc2ccc(O)cc2)NC(=O)[C@H](CCCCN)NC(=O)[C@H](CC(N)=O)NC(=O)[C@@H](Cc2ccccc2)NC(=O)[C@H](Cc2ccccc2)NC(=O)[C@@H]2CCCN2C(=O)[C@@H](Cc2ccccc2)NC1=O (cyclo(F[dF]NKYV[Orn]L[dF]P))
MHC [2]: 99 µg/mL | Ratio (Bacillus subtilis [3]): 90

MIC (Bacillus subtilis [1]): 0.6 µg/mL (≈ 0.465 µM)
Structure (SMILES): CC(C)C[C@@H]1NC(=O)[C@H](CCCN)NC(=O)[C@H](C(C)C)NC(=O)[C@H](Cc2ccc(O)cc2)NC(=O)[C@H](Cc2ccccc2)NC(=O)[C@H](CC(N)=O)NC(=O)[C@@H](Cc2ccccc2)NC(=O)[C@H](Cc2ccccc2)NC(=O)[C@@H]2CCCN2C(=O)[C@@H](Cc2ccccc2)NC1=O
MHC [2]: 18 µg/mL | Ratio (Bacillus subtilis [3]): 30

MIC (Bacillus subtilis [1]): 0.4 µg/mL (≈ 0.318 µM)
Structure (SMILES): CC(C)C[C@@H]1NC(=O)[C@H](CCCN)NC(=O)[C@H](C(C)C)NC(=O)[C@H](Cc2ccc(O)cc2)NC(=O)[C@H](CC(N)=O)NC(=O)[C@H](CC(N)=O)NC(=O)[C@@H](Cc2ccccc2)NC(=O)[C@H](Cc2ccccc2)NC(=O)[C@@H]2CCCN2C(=O)[C@@H](Cc2ccccc2)NC1=O
MHC [2]: 20 µg/mL | Ratio (Bacillus subtilis [3]): 50

MIC (Bacillus subtilis [1]): 0.3 µg/mL (≈ 0.239 µM)
Structure (SMILES): CC(C)C[C@@H]1NC(=O)[C@H](CC(N)=O)NC(=O)[C@@H](Cc2ccccc2)NC(=O)[C@H](Cc2ccccc2)NC(=O)[C@@H]2CCCN2C(=O)[C@@H](Cc2ccccc2)NC(=O)[C@H](CC(C)C)NC(=O)[C@H](CCCN)NC(=O)[C@H](C(C)C)NC(=O)[C@H](Cc2ccc(O)cc2)NC1=O
MHC [2]: 20 µg/mL | Ratio (Bacillus subtilis [3]): 67

MIC (Bacillus subtilis [1]): 0.3 µg/mL (≈ 0.244 µM)
Structure (SMILES): CC(C)C[C@@H]1NC(=O)[C@H](CCCN)NC(=O)[C@H](C(C)C)NC(=O)[C@H](Cc2ccc(O)cc2)NC(=O)[C@H](CO)NC(=O)[C@H](CC(N)=O)NC(=O)[C@@H](Cc2ccccc2)NC(=O)[C@H](Cc2ccccc2)NC(=O)[C@@H]2CCCN2C(=O)[C@@H](Cc2ccccc2)NC1=O
MHC [2]: 16 µg/mL | Ratio (Bacillus subtilis [3]): 53

MIC (Bacillus subtilis [1]): 0.3 µg/mL (≈ 0.231 µM)
Structure (SMILES): CC(C)C[C@@H]1NC(=O)[C@H](CCCN)NC(=O)[C@H](C(C)C)NC(=O)[C@H](Cc2ccc(O)cc2)NC(=O)[C@H](CCCN=C(N)N)NC(=O)[C@H](CC(N)=O)NC(=O)[C@@H](Cc2ccccc2)NC(=O)[C@H](Cc2ccccc2)NC(=O)[C@@H]2CCCN2C(=O)[C@@H](Cc2ccccc2)NC1=O
MHC [2]: 42 µg/mL | Ratio (Bacillus subtilis [3]): 140

MIC (Bacillus subtilis [1]): 0.2 µg/mL (≈ 0.159 µM)
Structure (SMILES): CC(C)C[C@@H]1NC(=O)[C@H](CCCN)NC(=O)[C@H](C(C)C)NC(=O)[C@H](Cc2ccc(O)cc2)NC(=O)[C@H](CCCN)NC(=O)[C@H](CC(N)=O)NC(=O)[C@@H](Cc2ccccc2)NC(=O)[C@H](Cc2ccccc2)NC(=O)[C@@H]2CCCN2C(=O)[C@@H](Cc2ccccc2)NC1=O (cyclo(F[dF]N[Orn]YV[Orn]L[dF]P))
MHC [2]: 25 µg/mL | Ratio (Bacillus subtilis [3]): 125
